Values quoted from earlier work in patent publication US9526803B2, “Diagnostic chewing gum for pathogens” (Julius-Maximilians-Universitaet Wuerzburg, priority 2012, dated 2016).
Where a name gives a salt, the structure may show the parent alone.

Legend:
human tongue = conditions: average human
gustatory system = conditions: reference for calibration of volunteers; bitter value 10,000 = 1 g in 10,000 mL water barely recognized as bitter

Row | SMILES | concentration sensed down to (taste recognition threshold) (human tongue) [mM] | bitter value (gustatory system)
1 | O=C1NS(=O)(=O)c2ccccc21 [saccharin] | 0.02 | 
2 | C=C[C@H]1C[N@@]2CC[C@H]1C[C@H]2[C@H](O)c1ccnc2ccc(OC)cc12 [quinine-HCl] |  | 200,000
3 | C=C[C@H]1C[N@@]2CC[C@H]1C[C@H]2[C@H](O)c1ccnc2ccc(OC)cc12 [Quinine sulfate] | 0.0004 | 
